Substitutions are numbered along the chain they refer to. Like-named read-outs stand apart in the source and are kept apart here. Where a SMILES comes first, the peptide text is derived from it. Bridges are numbered along the chain shown (N, C = ends).
What was measured:
Test in all cases: IP1 accumulation
Assay type in all cases: cell-based
hCTR F359A = target: T1, hCTR F359A (Homo sapiens, UniProt P30988, F359A); details: for Emax: read-out: Emax (% WT), SEM
T1 construct: expressed in transfected cells
T1 sequence (P30988 25-474 F359A): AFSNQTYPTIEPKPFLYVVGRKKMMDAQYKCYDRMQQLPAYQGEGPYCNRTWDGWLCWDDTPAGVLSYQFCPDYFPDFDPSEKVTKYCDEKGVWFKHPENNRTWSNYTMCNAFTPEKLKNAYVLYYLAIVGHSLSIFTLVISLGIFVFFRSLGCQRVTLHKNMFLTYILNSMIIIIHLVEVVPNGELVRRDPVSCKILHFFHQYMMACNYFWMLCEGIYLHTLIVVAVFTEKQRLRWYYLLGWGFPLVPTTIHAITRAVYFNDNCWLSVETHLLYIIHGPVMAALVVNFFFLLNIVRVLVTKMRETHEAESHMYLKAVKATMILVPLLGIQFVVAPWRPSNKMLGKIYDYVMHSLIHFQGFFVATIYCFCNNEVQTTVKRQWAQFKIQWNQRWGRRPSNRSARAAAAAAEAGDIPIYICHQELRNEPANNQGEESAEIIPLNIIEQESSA
In short: (§1)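 Ligand-induced IP1 (60 min, LiCl) measured by HTRF; normalized to 100 μM ATP response.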

hCTR L297A = target: T2, hCTR L297A (Homo sapiens, UniProt P30988, L297A); details: mean ± S.E.M.; for Emax: IP1 maximal response, SEM
T2 construct: c-Myc (N); expressed in transfected cells
T2 sequence (P30988 25-474 L297A): T1 sequence (P30988 25-474 F359A) with L273A, A335F
In short: as §1

hCTR N365A = target: T3, hCTR N365A (Homo sapiens, UniProt P30988, N365A); details: mean ± S.E.M.; for Emax: IP1 maximal response, SEM
T3 construct: c-Myc (N); expressed in transfected cells
T3 sequence (P30988 25-474 N365A): T1 sequence (P30988 25-474 F359A) with A335F, N341A
In short: as §1

hCTR R362A = target: T4, hCTR R362A (Homo sapiens, UniProt P30988, R362A); details: mean ± S.E.M.; for Emax: IP1 maximal response, SEM
T4 construct: expressed in transfected cells
T4 sequence (P30988 25-474 R362A): T1 sequence (P30988 25-474 F359A) with A335F, R338A
In short: as §1

hCTR S292A = target: T5, hCTR S292A (Homo sapiens, UniProt P30988, S292A); details: mean ± S.E.M.; for Emax: IP1 maximal response, SEM
T5 construct: expressed in transfected cells
T5 sequence (P30988 25-474 S292A): T1 sequence (P30988 25-474 F359A) with S268A, A335F
In short: as §1

[1] = IP1, CV1-FlpIn cells, 60 min, LiCl

| Structure (SMILES) | Emax (hCTR F359A) | Emax (hCTR L297A) | Emax (hCTR N365A) | Emax (hCTR R362A) | Emax (hCTR S292A) | EC50 (hCTR F359A; F359A, IP1, CV1-FlpIn cells, 60 min, LiCl, mean ± S.E.M.) | Emax (hCTR F359A; F359A, IP1 maximal response, mean ± S.E.M.) | EC50 (hCTR L297A; [1]) | EC50 (hCTR N365A; [1]) | EC50 (hCTR R362A; [1]) | EC50 (hCTR S292A; [1]) |
| --- | --- | --- | --- | --- | --- | --- | --- | --- | --- | --- | --- |
| CC[C@H](C)[C@H](NC(=O)[C@H](C)NC(=O)[C@@H](NC(=O)[C@H](CCC(N)=O)NC(=O)[C@@H]1CCCN1C(=O)[C@H](Cc1ccccc1)NC(=O)[C@@H](NC(=O)[C@H](Cc1c[nH]cn1)NC(=O)[C@H](Cc1ccccc1)NC(=O)[C@H](CCCCN)NC(=O)[C@H](CC(N)=O)NC(=O)[C@H](Cc1ccccc1)NC(=O)[C@H](CC(=O)O)NC(=O)[C@H](CCC(N)=O)NC(=O)[C@@H](NC(=O)[C@H](Cc1ccc(O)cc1)NC(=O)[C@@H](NC(=O)CNC(=O)[C@H](CC(C)C)NC(=O)[C@H](CCSC)NC(=O)[C@@H]1CSSC[C@H](N)C(=O)NCC(=O)N[C@@H](CC(N)=O)C(=O)N[C@@H](CC(C)C)C(=O)N[C@@H](CO)C(=O)N[C@@H]([C@@H](C)O)C(=O)N1)[C@@H](C)O)[C@@H](C)O)[C@@H](C)O)[C@@H](C)O)C(=O)NCC(=O)N[C@H](C(=O)NCC(=O)N[C@@H](C)C(=O)N1CCC[C@H]1C(N)=O)C(C)C [hCT] | 101 ± 9% | 52 ± 5% | 81 ± 6% | 77 ± 11% | 70 ± 6% |  |  |  |  |  |  |
| CSCC[C@H](NC(=O)CNC(=O)[C@H](CO)NC(=O)[C@H](Cc1ccccc1)NC(=O)[C@H](CCCNC(=N)N)NC(=O)[C@H](Cc1c[nH]cn1)NC(=O)[C@H](Cc1ccccc1)NC(=O)[C@H](CC(N)=O)NC(=O)[C@H](CC(N)=O)NC(=O)[C@H](CC(C)C)NC(=O)[C@H](CC(N)=O)NC(=O)[C@H](CCCNC(=N)N)NC(=O)[C@H](Cc1c[nH]c2ccccc12)NC(=O)[C@H](Cc1ccc(O)cc1)NC(=O)[C@H](C)NC(=O)[C@H](CO)NC(=O)[C@H](CC(C)C)NC(=O)[C@@H](NC(=O)[C@@H]1CSSC[C@H](N)C(=O)N[C@@H](CO)C(=O)N[C@@H](CC(N)=O)C(=O)N[C@@H](CC(C)C)C(=O)N[C@@H](CO)C(=O)N[C@@H]([C@@H](C)O)C(=O)N1)C(C)C)C(=O)NCC(=O)N[C@@H](Cc1ccccc1)C(=O)NCC(=O)N1CCC[C@H]1C(=O)N[C@@H](CCC(=O)O)C(=O)N[C@H](C(=O)N1CCC[C@H]1C(N)=O)[C@@H](C)O [pCT] (H-CSNLSTCVLSAYWRNLNNFHRFSGMGFGPETP-NH2; disulfide 1-7) |  | 68 ± 5% | 68 ± 6% | 47 ± 9% | 92 ± 7% | 13.2 nM | 77 ± 6% | 2 nM | 2.24 nM | 19.5 nM | 4.27 nM |
| CC(C)C[C@H](NC(=O)[C@H](CCCCN)NC(=O)CNC(=O)[C@H](CC(C)C)NC(=O)[C@@H](NC(=O)[C@@H]1CSSC[C@H](N)C(=O)N[C@@H](CO)C(=O)N[C@@H](CC(N)=O)C(=O)N[C@@H](CC(C)C)C(=O)N[C@@H](CO)C(=O)N[C@@H]([C@@H](C)O)C(=O)N1)C(C)C)C(=O)N[C@@H](CO)C(=O)N[C@@H](CCC(N)=O)C(=O)N[C@@H](CCC(=O)O)C(=O)N[C@@H](CC(C)C)C(=O)N[C@@H](Cc1c[nH]cn1)C(=O)N[C@@H](CCCCN)C(=O)N[C@@H](CC(C)C)C(=O)N[C@@H](CCC(N)=O)C(=O)N[C@H](C(=O)N[C@@H](Cc1ccc(O)cc1)C(=O)N1CCC[C@H]1C(=O)N[C@@H](CCCNC(=N)N)C(=O)N[C@H](C(=O)N[C@@H](CC(N)=O)C(=O)N[C@H](C(=O)NCC(=O)N[C@@H](CO)C(=O)NCC(=O)N[C@H](C(=O)N1CCC[C@H]1C(N)=O)[C@@H](C)O)[C@@H](C)O)[C@@H](C)O)[C@@H](C)O [sCT] | 125 ± 6% | 69 ± 7% | 66 ± 4% | 64 ± 5% | 91 ± 6% |  |  |  |  |  |  |

— PMC5908784, “Extracellular loops 2 and 3 of the calcitonin receptor selectively modify agonist binding and efficacy” (Biochemical Pharmacology, 2018)
